Data set [1] has as its system fos. Briefly: fos / c-fos mRNA expression in chondrocytes (Northern blot). The data set is classed as cell-based, bovine. The note with it: stimulus alone; H2 O2 30, 60 and 90 minutes; IL-1, PMA or AA (3 μM) 1 hour. Here is the method: The cytokine interleukin 1 (IL 1) has been used to identify the intermediate second messengers which regulate the expression of fos and jun.
In order to elucidate this possibility, the effect of DPI on fos and jun mRNA levels induced by IL 1 was investigated. RNA from chondrocytes treated with IL 1 in the presence and absence of DPI were analyzed by Northern blot analysis using either fos or collagenase cDNA probes.
Since superoxides are rapidly converted to hydrogen peroxide in the cell by superoxide dismutase, whether hydrogen peroxide could mimic the effect of IL 1 in the induction of fos expression was investigated. RNA was extracted from chondrocytes (Kandel et al. supra) treated with H2 O2 for 30, 60 and 90 minutes and examined by Northern blot analysis using a fos cDNA probe.
Bovine articular chondrocytes were isolated and plated as previously described (Kandel R. A. et al. Biochim. Biophys. Acta. 1053, 130-134, 1990). […] The amount of ^3 H-AA liberated into the supernatant was determined. To measure PGE2 production, chondrocytes were incubated for 6 hours in Ham's F12 medium, either alone or with IL 1 or PMA. […] In order to examine the expression of c-fos and c-jun, chondrocytes were incubated for 1 hour in the presence of IL-1, PMA or AA (3 μM). Chondrocytes were washed in PBS and the total RNA extracted as previously described (Cruz. et al, 1991, Biochem. J. 277, 327-330). RNA samples were run on formaldehyde agarose gels and transferred to nylon membrane for northern analysis using cDNA probes for c-fos and c-jun.
The RNA was extracted and examined by Northern blot analysis using cDNA probes for c-fos and collagenase.

Data set [2] deals with cells. The data set can be described thus: cell toxicity of orthovanadate and H2 O2. The data set is classed as cell-based. The note with it: 1 mM H2 O2, 24 hours. Here is the method:
Orthovanadate was thought in view of the investigations described in Examples 1-3, to react with H2 O2 to form hydroxyl radicals which are extremely toxic. If the orthovanadate induced formation of hydroxyl radicals is responsible for cell toxicity, then adding exogenous H2 O2 should enhance the effects of orthovanadate. Accordingly, cells were incubated in media alone or containing 1 mM H2 O2 or 10 μM orthovanadate or both for 24 hours. The cells were harvested and cell viability determined.

Data set [3] relates to MDAY-D2 cells. Briefly: viability of MDAY-D2 cells. The format is cell-based, mouse. The note with it: 0-50 μM, 48 hours, three forms compared. Here is the method:
Fos and jun activity are also required for cellular proliferation in many tumor cell lines. Accordingly, the effect of orthovanadate on adherent cells and cell suspensions were examined. MDAY-D2 (a mouse lymphoid cell line grown in suspension) and HTB14 cells (an adherent human primary astrocytoma cell line) were incubated in media containing 0-50 μM orthovanadate for 48 hours. The cells were harvested and the number of viable cells determined.
Three different forms of vanadyl compounds were examined for their effect on viability of cancer cell lines. MDAY-D2 cells were incubated in media containing 0-50 μM orthovanadate, vanadyl sulphate, or vanadyl hydroperoxide for 48 hours. The cells were harvested and the number of viable cells determined. […] Although there were slight differences in sensitivity, the overall cell death was similar.

Data set [4] concerns MDAY-D2 tumor. Briefly: MDAY-D2 tumor growth in vivo, orthovanadate, vanadyl sulphate, vanadyl hydroperoxide (Example 6B). Details: species or system mice. From the text:
(§1) In order to examine the ability of vanadyl compounds to reduce tumor formation, growth and metastases, a specific animal model which allows investigation of all of these processes in the same animal was chosen. This model involves the injection of a metastatic haematopoietic cell line, MDAY-D2, into mice subcutaneously. These cells form a tumor at the site of injection and its size can be easily determined. In addition, these cells metastasize to the liver and metastases can be detected histologically after day 17 to 19. This model provides a very sensitive and reproducible approach to investigate the effect of vanadyl compounds on tumor growth and metastases.
In a separate experiment using the same animal model, the effect of orthovanadate, vanadyl sulphate and vanadyl hydroperoxide administration on tumor growth in vivo was examined. On Day 1, 20 mice were injected with 2×10^5 MDAY-D2 cell subcutaneously. The mice were divided into four groups of five mice. At day 5, the animals were injected subcutaneously with 50 μl of water alone or containing 10 mg/ml of orthovanadate, 10 mg/ml of vanadyl sulphate, or 10 mg/ml of vanadyl hydroperoxide. This treatment was continued daily for 16 days. At day 21, the mice were sacrificed and the tumors dissected and weighed.

For data set [5], the system named is metastases of MDAY-D2 cells. Briefly: liver metastases of MDAY-D2 cells (histology). The data set is classed as in vivo, mice. The note with it: 500 μg/day; preliminary results.
Excerpt: as §1
The metastatic liver was obtained from an animal 24 days following the administration MDAY-D2 cells. The nodules are quite numerous and large.
Livers were removed from animals treated as described above and prepared for histological examination. FIG. 16 compares liver sections from untreated (C), orthovanadate (VO)(500 μg/day) and vanadyl sulphate (VS)(500 μg/day) treated animals. Nodules are identified with an arrow.

In data set [6] the test system is P388 (WT). Briefly: MTT cytotoxicity assay, P388 (WT). The note with it: P388 (WT), 72 hours; read-out: IC50 Value. The data set is classed as cell-based, murine. Here is the method: (§2) The relative cytotoxicity of various compounds on tumor cell lines was investigated as follows. Cytotoxicity was measured by the MTT microculture tetrazolium colorimetric assay for all cell lines. The relative cytotoxicity of Na3 VO4 and VOSO4 was investigated using the following tumor cell lines: P388(WT) murine leukemia, P388 (ADR) murine leukemia, Lewis murine lung, MCF7 (WT) human breast, […] human lung, K562 human erythroleukemia, A431 human epidermal, LS180 human colon and SK-OV-3 human ovarian. The relative cytotoxicity of doxorubicin, Na3 VO4 and VOSO4 was investigated using the following tumor cell lines: P388(WT) murine leukemia, P388 (ADR) murine leukemia, MCF7(WT) human breast and MCF7 (ADR) human breast. The relative cytotoxicity of BMOV, BEOV and naglivan was investigated using the following tumor cell lines: P388(WT) murine leukemia, P388 (ADR) murine leukemia, Lewis murine lung, H460 human lung, K562 human erythroleukemia, and SK-OV-3 human ovarian.
(§3) The cells were plated (number of cells/well was different from cell line to cell depending on the dividing rate) in a 96-well microculture plate 24 hours prior to the delivery of the vanadium compounds. Serial concentrations of solutions of the test compounds (0.05-100 μM) were delivered to the corresponding wells. A blank column (without cells) and a control column (with cells without vanadium) were left. The cells were incubated for 72 hours continuously. An MTT solution was added to each well after this incubation period and the cells were incubated for 4 more hours for the completion of the dyeing process. The medium was removed find DMSO was added to each well. The absorbance of each well was read with a Titertek Multiskan (310C) spectrophotometer at 570 nm. The percentage of the absorbance of each vanadium concentration relative to the control calculated and the value of the 50% growth inhibition concentration (IC50) was obtained from the % control versus concentration plot. Each assay was repeated three times and the reported IC50 values were the mean of these three runs.
For orientation: Formazan colour is commonly taken as a measure of viable cells.

Data set [7] concerns P388 (ADR). The data set can be described thus: MTT cytotoxicity assay, P388 (ADR). The format is cell-based, murine. The note with it: P388 (ADR), 72 hours; read-out: IC50 Value. How it is done:
as §2, §3

Data set [8] relates to Lewis lung. Briefly: MTT cytotoxicity assay, Lewis lung. The data set is classed as cell-based, murine. The note with it: 72 hours. How it is done:
as §2, §3

Data set [9] relates to MCF7 (WT). The data set can be described thus: MTT cytotoxicity assay, MCF7 (WT). The note with it: MCF7 (WT), 72 hours; read-out: IC50 Value. The format is cell-based, human. How it is done: as §2, §3
For data set [10], the system named is MCF7 (ADR). Briefly: MTT cytotoxicity assay, MCF7 (ADR). The format is cell-based, human. The note with it: MCF7 (ADR), 72 hours; read-out: IC50 Value. Here is the method: as §2, §3
For data set [11], the system named is H460. The data set can be described thus: MTT cytotoxicity assay, H460. The data set is classed as cell-based, human. The note with it: H460, 72 hours. Here is the method:
as §2, §3

The test system of data set [12] is K562. Briefly: MTT cytotoxicity assay, K562. The data set is classed as cell-based, human. The note with it: K562, 72 hours. How it is done: as §2
as §3, with “Serial concentrations of solutions of the test compounds (0.05-100 μM) were delivered to the corresponding wells.” left out

Data set [13] deals with A431. The data set can be described thus: MTT cytotoxicity assay, A431. The data set is classed as cell-based, human. The note with it: A431, 72 hours. How it is done: as §2
(§4) The cells were plated (number of cells/well was different from cell line to cell depending on the dividing rate) in a 96-well microculture plate 24 hours prior to the delivery of the vanadium compounds. Serial concentrations of solutions of the test compounds (0.05-100 μM) were delivered to the corresponding wells. […] The absorbance of each well was read with a Titertek Multiskan (310C) spectrophotometer at 570 nm. […]

Data set [14] deals with LS180. Briefly: MTT cytotoxicity assay, LS180. The format is cell-based, human. The note with it: LS180, 72 hours. How it is done:
as §2, §4

Data set [15] has as its system SK-OV-3. The data set can be described thus: MTT cytotoxicity assay, SK-OV-3. The format is cell-based, human. The note with it: SK-OV-3, 72 hours. How it is done:
as §2, §3

The subject of data set [16] is synoviocytes. The data set can be described thus: synoviocyte proliferation, dye exclusion (Example 24). The format is cell-based. How it is done:
The effect of vanadium compounds on synoviocyte proliferation was investigated as follows. Synoviocytes were plated on six well plates and treated with orthovanadate or vanadyl sulphate and incubated for 24 hours. The cells were removed and the number of viable cells determined by the dye exclusion method.

Data set [17] has as its system carcinogenesis. The note with it: dietary; cited from earlier work.

SMILES strings stand for the structures.

As for `OO` [H2 O2, hydrogen peroxide], the “stimulation of fos / c-fos expression” value in [1] is reported as “stimulates”. For the same molecule, the “effect on cell toxicity, H2 O2 alone” value in data set [2] is “small effect”.

For orientation: IC50 means the concentration that gives 50% inhibition. As to `O=S(=O)([O-])[O-].[O]=[V+2]` [vanadyl sulphate], the “killing of MDAY-D2 cells” value in [3] is “equally effective”. Also, in data set [4] (groups of five, 10 mg/ml, 50 μl daily s.c.), the animal deaths result is on record as “One animal died”. The “efficacy in reducing tumor growth” value in data set [4] (mouse, in vivo) is listed as “less effective”. For the same molecule, in [5], the metastases in liver entry is “did not have detectable levels of metastases”. In addition, the IC50 in [6] turned out to be 16.1 µM; in [7], 29.8 µM; in [8], 27.3 µM; in data set [9] it was 10.5 µM; in data set [10], 31.3 µM; in data set [11] it was 9.3 µM. Further, the half-inhibitory concentration (IC50) was more than 100 µM in data set [12], 29.1 µM in data set [13], 31.9 µM in data set [14] and 1.9 µM in [15]. Also, the cytotoxicity to synoviocytes result in data set [16] is “cytotoxic to the cells”. Besides, the Number of cells in data set [16] (25 μM, 24 hours (control 2.6)) is 0.2 10^-5. For the same molecule, the synoviocyte proliferation result in [16] (24 hours) is listed as “inhibited synoviocyte proliferation”. Further, the “chemically induced mammary carcinogenesis in rats” value in data set [17] is on record as “inhibit”.

Values taken from patent US5871779A, “Treatment of arthropathies with vanadate compounds or analogues thereof” (Mount Sinai Hospital Corporation, priority 1996, dated 1999).
